Laboratory results published in patent US11612606B2, “8-aminoisoquinoline compounds and uses thereof” (priority 2018, dated 2023).
Read-outs that look alike come from different tables or passages of the source.

Molecular target: HPK full length, T165E S171E (Homo sapiens (Human), UniProt Q92918, S171E/T165E)
Assay: HPK1-FL HTRF enzymatic assay ("HTRF")
Assay type: biochemical
Details: ATP 1 mM
Outline: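 Full-length HPK1 (T165E/S171E) was preincubated 30 min with compound, then reacted 60 min with biotin-SLP-76 and 1 mM ATP. Phospho-SLP-76 was detected by HTRF (Eu-anti-pSLP76 antibody, SA-XL665) after a further 60 min.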

Chain of HPK full length, T165E S171E (Q92918 whole entry T165E/S171E, looked up): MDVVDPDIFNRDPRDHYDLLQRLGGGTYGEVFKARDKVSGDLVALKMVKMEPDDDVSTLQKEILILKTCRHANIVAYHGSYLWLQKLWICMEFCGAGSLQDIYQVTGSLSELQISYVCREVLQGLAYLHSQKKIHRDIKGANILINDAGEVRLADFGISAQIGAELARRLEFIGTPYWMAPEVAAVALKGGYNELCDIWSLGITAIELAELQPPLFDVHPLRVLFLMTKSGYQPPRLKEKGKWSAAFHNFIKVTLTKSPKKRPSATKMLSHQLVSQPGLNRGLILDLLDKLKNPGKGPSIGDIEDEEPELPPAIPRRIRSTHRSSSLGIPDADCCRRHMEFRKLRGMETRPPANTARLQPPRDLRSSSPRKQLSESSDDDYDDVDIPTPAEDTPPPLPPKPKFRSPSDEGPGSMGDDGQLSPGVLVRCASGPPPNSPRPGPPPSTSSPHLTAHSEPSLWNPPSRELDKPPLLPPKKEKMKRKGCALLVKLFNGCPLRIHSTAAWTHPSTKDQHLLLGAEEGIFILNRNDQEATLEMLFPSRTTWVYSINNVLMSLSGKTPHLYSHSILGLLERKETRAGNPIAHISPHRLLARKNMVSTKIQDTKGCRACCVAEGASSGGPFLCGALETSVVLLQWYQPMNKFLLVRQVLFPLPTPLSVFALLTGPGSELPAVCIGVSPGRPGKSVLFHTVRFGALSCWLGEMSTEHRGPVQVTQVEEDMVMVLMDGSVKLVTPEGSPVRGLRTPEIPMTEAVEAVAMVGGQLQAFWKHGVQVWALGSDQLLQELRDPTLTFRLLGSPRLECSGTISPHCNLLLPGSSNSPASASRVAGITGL

SMILES	Ki (read-out: HPK1 Ki) [nM]	Ki (HPK1 Ki) [nM]
Cc1c(-c2cc3cc(NC(=O)N[C@@H]4C[C@@H]4C)ncc3c(N)c2F)cnc2c1NCCO2 (single isomer, unassigned) [Compound 736b]	< 0.013	–
Cc1c(-c2cc3cc(NC(=O)N[C@H]4CCOC[C@H]4F)ncc3c(N)c2F)cnc2c1NCCO2 (single isomer, unassigned) [Compound 747a]	–	< 0.013
Cc1c(-c2cc3cc(NC(=O)N[C@@H]4CCOC[C@@H]4F)ncc3c(N)c2F)cnc2c1NCCO2 (single isomer, unassigned) [Compound 747b]	–	< 0.013
CO[C@@H]1COCC[C@@H]1NC(=O)Nc1cc2cc(-c3cnc4c(c3C)NCCO4)c(F)c(N)c2cn1 (single isomer, unassigned) [Compound 750a]	0.96	–
CO[C@H]1COCC[C@H]1NC(=O)Nc1cc2cc(-c3cnc4c(c3C)NCCO4)c(F)c(N)c2cn1 (single isomer, unassigned) [Compound 750b]	< 0.013	–
Cc1c(-c2cc3cc(NC(=O)OC4CN(C)C4)ncc3c(N)c2F)cnc2c1NCCO2 [Compound 402, 1-Methylazetidin-3-yl (8-amino-7-fluoro-6-(8-methyl-2,3-dihydro-1H-pyrido[2,3-b][1,4]oxazin-7-yl)isoquinolin-3-yl)carbamate]	0.11	–
Cc1c(-c2cc3cc(NC(=O)O[C@H]4CCOC4)ncc3c(N)c2F)cnc2c1NCCO2 [Compound 403b, (S)-Tetrahydrofuran-3-yl (8-amino-7-fluoro-6-(8-methyl-2,3-dihydro-1H-pyrido[2,3-b][1,4]oxazin-7-yl)isoquinolin-3-yl)carbamate]	–	0.064
Cc1c(-c2cc3cc(NC(=O)OC4CCNCC4)ncc3c(N)c2F)cnc2c1NCCO2 [Compound 404, Piperidin-4-yl (8-amino-7-fluoro-6-(8-methyl-2,3-dihydro-1H-pyrido[2,3-b][1,4]oxazin-7-yl)isoquinolin-3-yl)carbamate]	0.03	–
Cc1c(-c2cc3cc(NC(=O)OC4CC5COCC(C4)N5C)ncc3c(N)c2F)cnc2c1NCCO2 (stereo not shown) [Compound 406, 9-Methyl-3-oxa-9-azabicyclo[3.3.1]nonan-7-yl (8-amino-7-fluoro-6-(8-methyl-2,3-dihydro-1H-pyrido[2,3-b][1,4]oxazin-7-yl)isoquinolin-3-yl)carbamate]	0.4	–
Cc1c(-c2cc3cc(NC(=O)OC4CCN(C)CC4)ncc3c(N)c2F)cnc2c1NCCO2 [Compound 407, 1-Methylpiperidin-4-yl (8-amino-7-fluoro-6-(8-methyl-2,3-dihydro-1H-pyrido[2,3-b][1,4]oxazin-7-yl)isoquinolin-3-yl)carbamate]	0.03	–
Cc1c(-c2cc3cc(NC(=O)O[C@H]4CCC(=O)N(C)C4)ncc3c(N)c2F)cnc2c1NCCO2 [Compound 409a, (S)-1-Methyl-6-oxopiperidin-3-yl (8-amino-7-fluoro-6-(8-methyl-2,3-dihydro-1H-pyrido[2,3-b][1,4]oxazin-7-yl)isoquinolin-3-yl)carbamate]	0.053	–
Cc1c(-c2cc3cc(NC(=O)O[C@@H]4CCN(C)C4)ncc3c(N)c2F)cnc2c1NCCO2 [Compound 411b, (R)-1-Methylpyrrolidin-3-yl (8-amino-7-fluoro-6-(8-methyl-2,3-dihydro-1H-pyrido[2,3-b][1,4]oxazin-7-yl)isoquinolin-3-yl)carbamate]	0.2	–
Cc1c(-c2cc3cc(NC(=O)OC4CCOCC4)ncc3c(N)c2F)cnc2c1NCCC2O (stereo not shown) [Compound 413, Tetrahydro-2H-pyran-4-yl (8-amino-7-fluoro-6-(8-hydroxy-4-methyl-5,6,7,8-tetrahydro-1,5-naphthyridin-3-yl)isoquinolin-3-yl)carbamate]	0.65	–
Cc1c(-c2cc3cc(NC(=O)O[C@H]4CCCN(C)C4)ncc3c(N)c2F)cnc2c1NCCO2 [Compound 416b, (5)-1-Methylpiperidin-3-yl (8-amino-7-fluoro-6-(8-methyl-2,3-dihydro-1H-pyrido[2,3-b][1,4]oxazin-7-yl)isoquinolin-3-yl)carbamate]	0.075	–
Cc1c(-c2cc3cc(NC(=O)OC4CC5(C4)CN(C)C5)ncc3c(N)c2F)cnc2c1NCCO2 [Compound 417, 2-Methyl-2-azaspiro[3.3]heptan-6-yl (8-amino-7-fluoro-6-(8-methyl-2,3-dihydro-1H-pyrido[2,3-b][1,4]oxazin-7-yl)isoquinolin-3-yl)carbamate]	< 0.013	–
Cc1c(-c2cc3cc(NC(=O)OC4CN(C(C)C)C4)ncc3c(N)c2F)cnc2c1NCCO2 [Compound 419, (1-Isopropylazetidin-3-yl) N-[8-amino-7-fluoro-6-(8-methyl-2,3-dihydro-1H-pyrido[2,3-b][1,4]oxazin-7-yl)-3-isoquinolyl]carbamate]	0.061	–

SMILES	Ki (read-out: HPK1 Ki) [nM]	Ki (HPK1 Ki) [nM]
Cc1c(-c2cc3cc(NC(=O)OC4CN(CC(F)(F)F)C4)ncc3c(N)c2F)cnc2c1NCCO2 [Compound 420, 1-(2,2,2-Trifluoroethyl)azetidin-3-yl (8-amino-7-fluoro-6-(8-methyl-2,3-dihydro-1H-pyrido[2,3-b][1,4]oxazin-7-yl)isoquinolin-3-yl)carbamate]	< 0.013	–
Cc1c(-c2cc3cc(NC(=O)OC4CCN(C5COC5)CC4)ncc3c(N)c2F)cnc2c1NCCO2 [Compound 421, 1-(Oxetan-3-yl)piperidin-4-yl (8-amino-7-fluoro-6-(8-methyl-2,3-dihydro-1H-pyrido[2,3-b][1,4]oxazin-7-yl)isoquinolin-3-yl)carbamate]	< 0.013	–
Cc1c(-c2cc3cc(NC(=O)OC4CCN(CC(F)(F)F)CC4)ncc3c(N)c2F)cnc2c1NCCO2 [Compound 422, 1-(2,2,2-Trifluoroethyl)piperidin-4-yl (8-amino-7-fluoro-6-(8-methyl-2,3-dihydro-1H-pyrido[2,3-b][1,4]oxazin-7-yl)isoquinolin-3-yl)carbamate]	0.023	–
Cc1c(-c2cc3cc(NC(=O)OC4CC5(CCN(C)CC5)C4)ncc3c(N)c2F)cnc2c1NCCC2 [Compound 423, (7-Methyl-7-azaspiro[3.5]nonan-2-yl) N-[8-amino-7-fluoro-6-(4-methyl-5,6,7,8-tetrahydro-1,5-naphthyridin-3-yl)-3-isoquinolyl]carbamate]	< 0.013	–
CC(=O)N1CC2(CC(OC(=O)Nc3cc4cc(-c5cnc6c(c5C)NCCO6)c(F)c(N)c4cn3)C2)C1 [Compound 424, 2-Acetyl-2-azaspiro[3.3]heptan-6-yl (8-amino-7-fluoro-6-(8-methyl-2,3-dihydro-1H-pyrido[2,3-b][1,4]oxazin-7-yl)isoquinolin-3-yl)carbamate]	< 0.013	–
Cc1c(-c2cc3cc(NC(=O)OC4CC5(C4)CN(C)C5)ncc3c(N)c2F)cnc2c1NCCC2 [Compound 425, 2-Methyl-2-azaspiro[3.3]heptan-6-yl (8-amino-7-fluoro-6-(4-methyl-5,6,7,8-tetrahydro-1,5-naphthyridin-3-yl)isoquinolin-3-yl)carbamate]	< 0.013	–
CC(=O)N1CC(OC(=O)Nc2cc3cc(-c4cnc5c(c4C)NCCO5)c(F)c(N)c3cn2)C1 [Compound 426, (1-Acetylazetidin-3-yl) N-[8-amino-7-fluoro-6-(8-methyl-2,3-dihydro-1H-pyrido[2,3-b][1,4]oxazin-7-yl)-3-isoquinolyl]carbamate]	< 0.013	–
Cc1c(-c2cc3cc(NC(=O)OC4CC5(CCN(C)CC5)C4)ncc3c(N)c2F)cnc2c1NCCO2 [Compound 427, 7-Methyl-7-azaspiro[3.5]nonan-2-yl (8-amino-7-fluoro-6-(8-methyl-2,3-dihydro-1H-pyrido[2,3-b][1,4]oxazin-7-yl)isoquinolin-3-yl)carbamate]	< 0.013	–
Cc1c(-c2cc3cc(NC(=O)OC4CC5(CCN(C)C5)C4)ncc3c(N)c2F)cnc2c1NCCO2 (stereo not shown) [Compound 428, 6-Methyl-6-azaspiro[3.4]octan-2-yl (8-amino-7-fluoro-6-(8-methyl-2,3-dihydro-1H-pyrido[2,3-b][1,4]oxazin-7-yl)isoquinolin-3-yl)carbamate]	< 0.013	–
CC(=O)N1CC(OC(=O)Nc2cc3cc(-c4cnc5c(c4C)NCCC5)c(F)c(N)c3cn2)C1 [Compound 429, 1-Acetylazetidin-3-yl (8-amino-7-fluoro-6-(4-methyl-5,6,7,8-tetrahydro-1,5-naphthyridin-3-yl)isoquinolin-3-yl)carbamate formic acid]	0.028	–
Cc1c(-c2cc3cc(NC(=O)OC4CC5(CCN(C6COC6)CC5)C4)ncc3c(N)c2F)cnc2c1NCCC2 [Compound 430, 7-(Oxetan-3-yl)-7-azaspiro[3.5]nonan-2-yl (8-amino-7-fluoro-6-(4-methyl-5,6,7,8-tetrahydro-1,5-naphthyridin-3-yl)isoquinolin-3-yl)carbamate]	< 0.013	–
Cc1c(-c2cc3cc(NC(=O)OC4C5CC4CN(C)C5)ncc3c(N)c2F)cnc2c1NCCO2 (stereo not shown) [Compound 431, 3-Methyl-3-azabicyclo[3.1.1]heptan-6-yl (8-amino-7-fluoro-6-(8-methyl-2,3-dihydro-1H-pyrido[2,3-b][1,4]oxazin-7-yl)isoquinolin-3-yl)carbamate]	2.3	–
Cc1c(-c2cc3cc(NC(=O)O[C@H]4[C@@H]5CN(C)C[C@@H]54)ncc3c(N)c2F)cnc2c1NCCO2 [Compound 432a, (1R,5S,6s)-3-Methyl-3-azabicyclo[3.1.0]hexan-6-yl (8-amino-7-fluoro-6-(8-methyl-2,3-dihydro-1H-pyrido[2,3-b][1,4]oxazin-7-yl)isoquinolin-3-yl)carbamate]	< 0.013	–
Cc1c(-c2cc3cc(NC(=O)OC4CN(CC(F)F)C4)ncc3c(N)c2F)cnc2c1NCCO2 [Compound 434, 1-(2,2-Difluoroethyl)azetidin-3-yl (8-amino-7-fluoro-6-(8-methyl-2,3-dihydro-1H-pyrido[2,3-b][1,4]oxazin-7-yl)isoquinolin-3-yl)carbamate]	< 0.013	–
Cc1c(-c2cc3cc(NC(=O)OC4CCN(C)CC4(C)C)ncc3c(N)c2F)cnc2c1NCCO2 (stereo not shown) [Compound 435, (1,3,3-Trimethyl-4-piperidyl) N-[8-amino-7-fluoro-6-(8-methyl-2,3-dihydro-1H-pyrido[2,3-b][1,4]oxazin-7-yl)-3-isoquinolyl]carbamate]	0.187	–
